In data set [1] the test system is TNF-α production. Kind of data set: LPS-induced TNF-α production in culture of mice peritoneal macrophage (ELISA). It is filed as cell-based. The note with it: for IC50: mouse peritoneal macrophages, at least five concentrations, range tested in parentheses, read-out: TNF-α Inhibition IC50; for inhibition at 10 µM: read-out: TNF-α Inhibition, % inhibition at 10 µM, mouse peritoneal macrophages, 10 µM, vs vehicle (DMSO), n = 3.
Protocol: BALBc mice were stimulated with thyoglicollate 3% (1 mL/mice; i.p.) and 3 days later the peritoneal cavity were washed with RPMI 1640 and the peritoneal macrophages were plated onto 96-wells plate (30.000 cells/well) for 1 hour at 37°C in an humidified 5% CO2 atmophere. Then, macrophages were incubated with the vehicle or compounds and 1 hour later stimulated with LPS (100 ng/mL) for 24 hour when the supernatants were collected to evaluate TNF-α production by ELISA kit (BD Bioscience).

A short description of data set [2]: Cell viability by MTT assay. Type of data set: cell-based. The note with it: mouse, murine peritoneal macrophages, vs vehicle (DMSO). The protocol: The peritoneal macrophage were obtained and plated as described above. The cells were incubated with the vehicle or compounds for 20 hours when was added 20 µl of MTT (3-(4,5-dimethylthiazol-2-yl)-2,5-diphenyltetrazolium bromide) solution (5 mg/mL), followed by 4 hour of incubation. Then, the culture mediums were collected and the precipitates were solubilized in 200 µl of DMSO. The optical density was measured at 490 nm.
A general note: Tetrazolium assays rely on reduction of a dye to a coloured formazan, in cell work by metabolically active cells.

The target in data set [3] is p38α MAPK (Homo sapiens, UniProt Q16539). Kind of data set: In vitro p38α MAPK activity inhibition (nonradioactive immunosorbent assay, ref 23). Type of data set: biochemical. The method, then: Because the novel N-acylhydrazone derivatives 4a–g were designed based on the p38α MAPK inhibitor BIRB-796 (3), they were all evaluated for their in vitro capacity to inhibit p38α MAPK activity at a concentration of 10 µM.
Sequence of p38α MAPK (Q16539 whole entry): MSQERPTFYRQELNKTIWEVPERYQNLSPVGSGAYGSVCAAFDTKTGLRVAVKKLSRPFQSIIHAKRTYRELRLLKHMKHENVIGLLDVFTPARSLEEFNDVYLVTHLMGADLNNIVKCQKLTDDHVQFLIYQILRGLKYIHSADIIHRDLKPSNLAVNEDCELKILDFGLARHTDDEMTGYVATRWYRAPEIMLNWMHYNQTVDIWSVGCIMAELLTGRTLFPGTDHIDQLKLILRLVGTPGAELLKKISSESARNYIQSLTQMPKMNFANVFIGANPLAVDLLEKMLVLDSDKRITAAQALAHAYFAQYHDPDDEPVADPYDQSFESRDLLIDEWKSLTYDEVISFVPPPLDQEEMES
*This assay was performed as described in reference 23.

Data set [4] deals with TNF-α level in carrageenan-injected paws. Description: TNF-α level in carrageenan-injected paws (ELISA). Type of data set: in vivo. The note with it: rat paw, 4 h after carrageenan, 100 µmol/kg p.o. The method, then:
(§1) Wistar rats of both sexes (150–200g) were used. The compounds were administered orally (100 µmol.5mL-1.kg-1) as a suspension in 5% arabic gum in saline (vehicle). Control animals received an equal volume of vehicle. One hour later, the animals were injected with either 0.1 ml of 1% carrageenan solution in saline or sterile saline (NaCl 0.9%), into the subplantar surface of one of the hind paws. The thermal hypernociception was determined using the modified hot-plate test. Rats are placed individually on a hot plate with the temperature adjusted to 51°C. The latency of the withdrawal response of the left hind paw is determined at 0, 30, 60, 120, 180, and 240 min post-challenge. The time of maximum permanence permitted on the hot surface is 20 s. Hypernociception to heat is defined as a decrease in withdrawal latency and calculated as follows: Δ paw withdrawal latency (s) = (left paw withdrawal latency at time 0) – (left paw withdrawal latency at the others times).
The paw was homogenized 4 h after intraplantar injection of carrageenan, and the level of TNF-α in the supernatant was determined by ELISA.

Data set [5] can be described thus: Aqueous solubility in phosphate buffer (HPLC-UV). Type of data set: physicochemical. The protocol: (§2) The organic fraction was analyzed with the Shimadzu Prominence HPLC system (Shimadzu, Tokio, Japan) consisting of a vacuum degasser (DGU-20A5), a binary pump (LC-20AD), a autosampler (SIL-20A), UV/VIS Photodiode Array Detector (SPD-M20A) and fitted with a guard column (CLC G-ODS) and a Shimadzu (CLC-ODS, M) column (250 mm×4.6 mm i.d.) running at room temperature. Isocratic elution was performed with acetonitrile-water (40∶60 v/v), at a flow rate set at 1 mL/min. The mobile phase pH was adjusted to 8.0 with NH4OH solution. The detection was carried out at 285 nm and 330 nm wavelength for compound 4f and 4a, respectively.

Data set [6] concerns carrageenan-induced thermal hypernociception. Description: Carrageenan-induced thermal hypernociception (modified hot-plate test). Conditions: rats, 100 µmol/kg p.o. Type of data set: in vivo, rat. The method, then:
as §1
In general terms: In hot-plate and tail-flick tests a longer latency is read as antinociception.

The nature of data set [7]: Rat liver microsomal stability. The note with it: 50 µM, 37 °C, 1 mg/mL protein. It is filed as in vitro ADME. The protocol:
The incubation was conducted at 37°C for 60 min. The experiments contains MgCl2 (1.3 mM), NADP+ (0.4 mM), glucose-6-phosphate (3.5 mM), 0.5 U/mL glucose-6-phosphate dehydrogenase in a phosphate buffer (0.1 M, pH 7.4) containing EDTA (1.5 mM) and the test compounds were added at final concentration of 50 µM with 0.25 mL of final volume. After the pre-warming of the mixture at 37 °C, the microsomal proteins were added to give a final protein concentration of 1 mg/mL. At the end of the incubation time the reaction was stopped by the addition of 375 µL of MeOH and 375 µL of CH3CN. The experiments were performed in duplicate. The samples were centrifuged and filtered for HPLC-UV analysis.
as §2
(In general: Microsomes from liver hold many membrane-bound enzymes, among them those of drug oxidation.)

A short description of data set [8]: Rat plasma stability. Type of data set: in vitro ADME. Conditions: 50 µM; for % Recovered amount after 60 min, rat plasma: 37 °C. The protocol: The rat plasma was obtained from blood by centrifugation and diluted in phosphate buffer (pH 7.4). The test compounds were added at final concentration of 50 µM with 0.25 mL of final volume and incubated at 37°C for 60 min under agitation. At the end of the incubation time the reaction was stopped by the addition of 375 µL of MeOH and 375 µL of CH3CN. The experiments were performed in duplicate. The samples were centrifuged and filtered for HPLC-UV analysis.
as §2

Entries after “also recorded” stand apart in the source; their conditions may differ.

With `CC(C)(C)c1cc(NCC(=O)N/N=C/c2ccc(O)c3ccccc23)n(-c2ccccc2)n1` [Compound 4b, (E)-2-(3-tert-butyl-1-phenyl-1H-pyrazol-5-ylamino)-N’-((4-hydroxynaphthalen-1-yl)methylene)acetohydrazide], the melting point (in general, the temperature, or range, at which the solid turns liquid) was 270 °C. Besides, in [1], the IC50 – broadly, the concentration at which inhibition is half-maximal – is 4.3 µM and the inhibition (usually the relative decrease from the control value, in per cent) at 10 µM amounted to 75.4%. Further, in [2], the viability (usually a read-out of living cells in per cent, often relative to untreated cells) at 20 h, 3 µM came out at 100% and the viability at 20 h, 10 µM came out at 100%. For the same compound, the inhibition at 10 µM in [3] is approximately 30%.
Compound `CC(C)(C)c1cc(NCC(=O)N/N=C/c2ccc(OCCN3CCOCC3)c3ccccc23)n(-c2ccccc2)n1` [Compound 4a, (E)-2-(3-tert-butyl-1-phenyl-1H-pyrazol-5-ylamino)-N’-((4-(2-morpholinoethoxy)naphthalen-1-yl)methylene)acetohydrazide] had a melting point of 180 °C. Besides, in data set [1], the IC50 was 3.6 µM and the inhibition at 10 µM worked out at 96.9%. In addition, the “Suppression of the elevation of tissue TNF-α level” value in [4] is listed as 57.3%. For the same compound, the “Improvement in aqueous solubility at pH 6.4 (versus pH 7.4)” value in data set [5] (pH 6.4 compared with pH 7.4) is “ca. three”. Besides, the “Improvement in solubility of 4a compared with 4f at pH 6.4” value in [5] (phosphate buffer pH 6.4, 37 °C, 24 h) is reported as “ca. 12 times”. In addition, the “Improvement in solubility of 4a compared with 4f at pH 7.4” value in data set [5] (phosphate buffer pH 7.4, 37 °C, 24 h) is given as “ca. 5 times”. Also, the “Anti-hypernociceptive effect (in words)” value in [6] is recorded as “comparable to SB-203580; also recorded: completely inhibit the hypernociceptive response”. In addition, in data set [2], the viability at 20 h, 3 µM is 100% and the viability at 20 h, 10 µM came out at 61.5%. For the same compound, the inhibition at 10 µM in [3] is -5.35%. In data set [7], the “% Recovered amount after 60 min, rat liver microsomes” value was 90.1%. The “% Recovered amount after 60 min, rat plasma” value in data set [8] was found to be 40.7%. The “Resistance to plasma degradation relative to 4f” value in data set [8] (rat plasma, 60 min) is “about four”.
The compound `CC(C)(C)c1cc(NCC(=O)N/N=C/c2cccc3ccccc23)n(-c2ccccc2)n1` [Compound 4c, (E)-2-(3-tert-butyl-1-phenyl-1H-pyrazol-5-ylamino)-N’-(naphthalen-1-ylmethylene)acetohydrazide] returned a melting point of 140 °C. In addition, in data set [1], the concentration for half-maximal inhibition (IC50) is 5.5 µM and the inhibition at 10 µM was 61.2%. For the same compound, in data set [2], the viability at 20 h, 3 µM was found to be 100% and the viability at 20 h, 10 µM was 90.4%. The inhibition at 10 µM in data set [3] was 19.7%.
In the case of `CC(C)=NNC(=O)CNc1cc(C(C)(C)C)nn1-c1ccccc1` [Compound 9, 2-(3-tert-butyl-1-phenyl-1H-pyrazol-5-ylamino)-N’-(propan-2-ylidene)acetohydrazide], the melting point is 181 to 183 °C.
For the compound `C[S+]([O-])c1ccc(-c2nc(-c3ccncc3)c(-c3ccc(F)cc3)[nH]2)cc1` (centres unmarked) [SB-203580 (1), SB-203580, reference compound], the inhibition at 10 µM in data set [1] amounted to 90%. In [2], this compound displayed a viability at 20 h, 3 µM of 100% and a viability at 20 h, 10 µM of 44.3%.
As for `CN(CC(=O)N/N=C/c1ccccc1)c1cc(C(C)(C)C)nn1-c1ccccc1` [Compound 15, (E)-N’-benzylidene-2-((3-tert-butyl-1-phenyl-1H-pyrazol-5-yl)(methyl)amino)acetohydrazide], the melting point fell in the range of 156 to 158 °C.
As to `CC(C)(C)c1cc(NCC(=O)N/N=C/c2ccc(O)cc2)n(-c2ccccc2)n1` [Compound 4e, (E)-2-(3-tert-butyl-1-phenyl-1H-pyrazol-5-ylamino)-N’-(4-hydroxybenzylidene)acetohydrazide], the inhibition at 10 µM in [1] worked out at 8.1%. In data set [2], this compound showed a viability at 20 h, 3 µM of 100% and a viability at 20 h, 10 µM of 97.8%. Further, the inhibition at 10 µM in data set [3] is approximately 30%.
Regarding `CC(C)(C)c1cc(NCC(=O)N/N=C/c2ccccc2)n(-c2ccccc2)n1` [Compound 4g, (E)-N’-benzylidene-2-(3-tert-butyl-1-phenyl-1H-pyrazol-5-ylamino)acetohydrazide], the inhibition at 10 µM in data set [1] stood at 50.4%; in [3], 19.5%. In [2], this compound registered a viability at 20 h, 3 µM of 100%. For the same compound, the viability at 20 h, 10 µM in data set [2] is 99.8%.
Turning to `CC(C)(C)c1cc(NCC(=O)N/N=C/c2ccc(Cl)cc2)n(-c2ccccc2)n1` [Compound 4f, (E)-2-(3-tert-butyl-1-phenyl-1H-pyrazol-5-ylamino)-N’-(4-chlorobenzylidene)acetohydrazide], in data set [1], the IC50 came out at 1.6 µM and the inhibition at 10 µM stood at 93.2%. In data set [4], the “Suppression of the elevation of tissue TNF-α level” value is listed as 55.8%. For the same compound, the “Anti-hypernociceptive effect (in words)” value in data set [6] was “comparable to SB-203580; also recorded: partially inhibit this response”. In data set [2], the viability at 20 h, 3 µM is 100% and the viability at 20 h, 10 µM was 46.6%. In addition, the inhibition at 10 µM in [3] came to 15.3%. Besides, the “% Recovered amount after 60 min, rat liver microsomes” value in data set [7] is reported as 86.7%. The “% Recovered amount after 60 min, rat plasma” value in data set [8] was 13.3%.
`CC(C)(C)c1cc(NCC(=O)N/N=C/c2ccc(OCCN3CCOCC3)cc2)n(-c2ccccc2)n1` [Compound 4d, (E)-2-(3-tert-butyl-1-phenyl-1H-pyrazol-5-ylamino)-N’-(4-(2-morpholinoethoxy)benzylidene)acetohydrazide] registered a melting point of 158 °C. Besides, in data set [1], the inhibition at 10 µM is 52.5%. In addition, in data set [2], the viability at 20 h, 3 µM came out at 100% and the viability at 20 h, 10 µM turned out to be 100%. The inhibition at 10 µM in [3] turned out to be 16.4%.

For the origin of these results see PMC3466213, “Discovery of Novel Orally Active Anti-Inflammatory N-Phenylpyrazolyl-N-Glycinyl-Hydrazone Derivatives That Inhibit TNF-α Production” (PLoS ONE, 2012).
